The target of the assay is T1, Ec YeaWX lysate (Escherichia coli YeaW/YeaX) (Escherichia coli, UniProt P0ABR7).
T1 construct: create a 5′ NdeI restriction site including the ATG start codon of yeaW; create a PstI restriction site just 3′ of the yeaX TAG stop codon; made in house; host or cells: E. coli BL21 (DE3), pET30a, IPTG induction; unpurified French-press lysate supernatant
T1 sequence (P0ABR7 whole entry): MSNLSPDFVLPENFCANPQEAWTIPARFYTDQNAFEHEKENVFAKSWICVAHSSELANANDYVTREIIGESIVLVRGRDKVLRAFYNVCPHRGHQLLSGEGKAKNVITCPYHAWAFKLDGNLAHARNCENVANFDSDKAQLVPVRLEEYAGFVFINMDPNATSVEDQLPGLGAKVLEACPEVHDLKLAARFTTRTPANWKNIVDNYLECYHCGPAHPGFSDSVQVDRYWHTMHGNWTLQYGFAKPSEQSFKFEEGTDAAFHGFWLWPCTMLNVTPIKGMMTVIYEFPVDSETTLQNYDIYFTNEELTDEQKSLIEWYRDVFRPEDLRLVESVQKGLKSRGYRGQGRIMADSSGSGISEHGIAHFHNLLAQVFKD
As to the kind of experiment: Inhibition of d9-TMA formation from d9-carnitine in Ec YeaWX lysate (LC-MS/MS). It counts as biochemical. To be noted: Ec YeaWX lysate 2.0 mg/mL protein, 250 μM NADPH, 50 μM d9-carnitine chloride, 37° C. for two hours; read-out: TMA Inhibition (IC50, mol/L). From the text: This example provides an exemplary assay for identifying and characterizing compounds that inhibit the formation of TMA from carnitine.
Escherichia coli BL21*DE3::pET30a-Ec yeaWX #1 (Ec YeaWX) strain was generated as described below. The contiguous Escherichia coli coding sequence yeaW (equivalent to uniprot ID P0ABR7.1 (YeaW) (SEQ ID NO: 2)) and yeaX (equivalent to uniprot ID P76254.1 (YeaX) (SEQ ID NO: 3)) were PCR amplified from Escherichia coli strain K-12 substr. BW25113 genomic DNA. PCR primers (YeaW_Nde_I_fwd2—SEQ ID NO: 4; YeaX_rev2—SEQ ID NO: 5) were designed to create a 5′ NdeI restriction site including the ATG start codon of yeaW and create a PstI restriction site just 3′ of the yeaX TAG stop codon.
The amplicon was restricted and cloned into the NdeI and PstI sites of the plasmid pET30a downstream of the inducible T7 promoter. A blast search of the resulting cloned amplicon DNA sequence (SEQ ID NO: 1) corresponded to nucleotide range 1884665 to 1886810 of Escherichia coli str. K-12 substr. MG1655 (NCBI Accession # NC_000913). The construct was transformed and grown in E. coli BL21 (DE3) and the recombinant yeaWX overexpressed by addition of isopropyl β-D-1-thiogalactopyranoside (IPTG).
The bacteria were grown aerobically in 50 mL LB broth (Difco #244620; 10 g/L Tryptone, 5 g/L yeast extract, 10 g/L NaCl, 50 μg/mL kanamycin), in a 500 mL Erlenmeyer flask. The cultures were inoculated from glycerol stock of BL21*DE3::pET30a-Ec yeaWX #1 strain. Strains were cultured all day at 37° C. with 250 rpm shaking. Two 300 mL Minimal M9 Medium (6 g/L Na2HPO4, 3 g/L KH2PO4, 0.5 g/L NaCl, 1 g/L NH4Cl, 0.1 mM CaCl2, 1 mM MgSO4, 0.2% Dextrose, 1 mg/L Thiamine, 50 μg/mL kanamycin), in 1 L Erlenmeyer flasks, were inoculated with 5 mL of the LB broth day culture and cultured overnight at 37° C. with 250 rpm shaking. The overnight cultures were used to inoculate twelve 1 L cultures of Minimal M9 media in 2.8 L fluted Erlenmeyer flasks to an OD 600 nm of 0.05 (typically approximately 28 mLs), which were grown at 37° C. with 250 rpm shaking until an OD600 of approximately 0.4 was reached. Expression of YeaWX was induced with 1 mM IPTG and the induced cultures were further grown overnight at 37° C. with 250 rpm shaking. The biomass was pelleted by centrifugation at 6000×g for 12 minutes at 4° C. The cell pellet was suspended in 240 mL of ice-cold 1× Phosphate Buffered Saline (Ca^2+ and Mg^2+ free). Ninety micrograms of Lysozyme (Sigma # L6876 Lot # SLBG8654V; Sigma-Aldrich Corp., St. Louis, Mo.) was added and incubated with 320 rpm shaking for 30 minutes at 4° C. Lysis was achieved via French press with a 4° C. prechilled 1″ diameter chamber at 1000 psi (high ratio; internal PSI equivalent ˜16000). The lysate was centrifuged at 6,000×g for 12 minutes at 4° C. to pellet extra debris. Glycerol was added to the centrifuged lysate supernatant at a final concentration of 15% A protein concentration of the centrifuged lysate supernatant was determined by a BCA Protein Assay Kit (Pierce #23225), typically in the 2.5 to 4.5 mg/ml range. The centrifuged Ec YeaWX lysate supernatant was aliquoted into 20 mL volumes and stored frozen at −80° C.
Ec YeaWX lysate was diluted to 2.0 mg/mL protein with 1× Dulbecco's phosphate buffered saline (DPBS) plus 15% glycerol. Nicotinamide adenine dinucleotide phosphate (NADPH) was added to 250 μM. One hundred and fifty microliters of Ec YeaWX lysate was dispensed into a deep-well plate (polypropylene, 2 mL volume, Corning Axygen catalogue # P-DW-20-C). […] The plates were agitated on a plate shaker for 1 minute. d9-carnitine chloride (1.5 μL of 5 mM) was added to all wells to reach a final d9-carnitine chloride concentration of 50 μM.
The plates were again agitated on a plate shaker for 1 minute and incubated at 37° C. for two hours. After incubation, 1.5 μL of formic acid was added to each well (final concentration=1% formic acid). The plates were agitated on a plate shaker for 1 minute and placed on ice. […]
`S=C=N[C@@H]1C[C@H]2CC[C@@H]1C2` (relative stereo) [Compound 29, exo-2-Norbornyl-isothiocyanate]: the IC50 was 21.6 µM.
In the case of `COc1ccc(C)cc1N=C=S` [Compound 1, 2-Methoxy-5-methylphenyl isothiocyanate] it was 61.6 µM; in that of `CC(C)(C)N=C=S` [Compound 2, tert-Butyl isothiocyanate], above 1000 µM.
With `Cc1cccc(N=C=S)c1` [Compound 3, m-Tolyl isothiocyanate] the figure was 14.5 µM; with `CSc1ccc(N=C=S)cc1` [Compound 4, 4-(Methylthio)phenyl isothiocyanate], 10.8 µM.
As for `S=C=NCc1ccccc1` [Compound 5, Benzyl isothiocyanate], the IC50 was determined as 8.37 µM.
In the case of `CCCCCN=C=S` [Compound 6, 1-pentyl isothiocyanate] it was 32.2 µM.
For the molecule `CCN(CC)CCCN=C=S` [Compound 7, 3-(Diethylamino)propyl isothiocyanate], the IC50 was 146 µM.
Turning to `S=C=NCC1CCCCC1` [Compound 8, Cyclohexylmethyl isothiocyanate], the IC50 was 38.1 µM.
Regarding `S=C=NCCc1ccc(Cl)cc1` [Compound 9, 2-(4-Chlorophenethyl) isothiocyanate], the IC50 came out at 12.7 µM.
In the case of `CCC(C)N=C=S` (stereo not drawn) [Compound 10, sec-butyl isothiocyanate] it was 146 µM.
`CC(C)CN=C=S` [Compound 12, Isobutyl isothiocyanate]: the IC50 was determined as 74.5 µM.
For `CCCCN=C=S` [Compound 13, Butyl isothiocyanate], the IC50 stood at 63.6 µM.
As to `CC(C)N=C=S` [Compound 15, Isopropyl isothiocyanate], the IC50 is 200 µM.
With `CC(C)CCN=C=S` [Compound 16, 1-isothiocyanato-3-methylbutane] the figure was 75.9 µM; with `CCCCCCN=C=S` [Compound 17, Hexyl isothiocyanate], 43.5 µM.
As for `S=C=Nc1ccccc1` [Compound 18, Phenyl isothiocyanate], the IC50 came out at 6.45 µM.
For the molecule `S=C=Nc1cccc2ccccc12` [Compound 19, 1-Naphthyl isothiocyanate], the IC50 was determined as 12.5 µM.
In the case of `S=C=Nc1ccc(Br)cc1` [Compound 20, 4-Bromophenyl isothiocyanate] it was 4.72 µM.
With `O=C(N=C=S)c1ccccc1` [Compound 21, Benzoyl isothiocyanate], the IC50 was found to be 138 µM.
With `CC(C)(C)OC(=O)NCCCCN=C=S` [Compound 22, N-Boc-4-isothiocyanatobutylamine], the IC50 came out at 17.7 µM.
In the case of `CC(C)(C)OC(=O)Nc1ccc(N=C=S)cc1` [Compound 23, N-Boc-4-isothiocyanatoaniline] it was 15.7 µM.
As for `S=C=NCCCN1CCOCC1` [Compound 24, 3-(4-Morpholino)propyl isothiocyanate], the IC50 is 68.5 µM.
With `S=C=NCCN1CCOCC1` [Compound 25, 2-(4-Morpholino)ethyl isothiocyanate] the figure was 69 µM; with `C[C@H](N=C=S)c1ccccc1` [Compound 26, (S)-(+)-alpha-Methylbenzyl isothiocyanate], 7.34 µM; with `S=C=Nc1ccc(Cl)cc1` [Compound 27, 4-Chlorophenyl isothiocyanate], 4.57 µM.
For `COc1ccc(N=C=S)cc1` [Compound 28, 4-Methoxyphenyl isothiocyanate], the IC50 is 5.76 µM.
For `S=C=NC1CCCCC1` [Compound 30, Cyclohexyl isothiocyanate], the IC50 is 38.8 µM.
For the molecule `CCc1ccc(N=C=S)cc1` [Compound 31, 4-Ethylphenyl isothiocyanate], the IC50 was 17.3 µM.
`COc1ccccc1N=C=S` [Compound 32, 2-Methoxyphenyl isothiocyanate]: the IC50 worked out at 33.3 µM.
In the case of `COc1ccc(OC)c(N=C=S)c1` [Compound 33, 2,5-Dimethoxyphenyl isothiocyanate] it was 47.7 µM.
For `COc1cccc(N=C=S)c1` [Compound 34, 3-Methoxyphenyl isothiocyanate], the IC50 amounted to 9.59 µM.
On to `S=C=NCCN1CCCCC1` [Compound 35, 2-Piperidinoethyl isothiocyanate], for which the IC50 is 104 µM.
In the case of `CCOC(=O)CN=C=S` [Compound 36, Ethyl isothiocyanatoacetate] it was 30 µM.
For `CCCCCC12CCC(C(=O)Oc3ccc(N=C=S)cc3)(CC1)CC2` [Compound 37, 4-Isothiocyanatophenyl 4-pentylbicyclo[2.2.2] octane-1-carboxylate], the IC50 is above 1000 µM.
As to `S=C=NC(c1ccccc1)c1ccccc1` [Compound 38, Benzhydryl isothiocyanate], the IC50 came to 3.05 µM.
In the case of `CC(=O)O[C@H]1[C@H](OC(C)=O)[C@@H](N=C=S)OC[C@H]1OC(C)=O` [Compound 39, 2,3,4-Tri-O-acetyl-α-D-arabinopyranosyl isothiocyanate] it was 50.1 µM.
With `CCN(CC)CCN=C=S` [Compound 40, Ethanamine, N,N-diethyl-2-isothiocyanato] the figure was 320 µM; with `CN(C)CCCN=C=S` [Compound 41, 3-isothiocyanato-N,N-dimethyl-1-Propanamine], 320 µM; with `CN(C)CCN=C=S` [Compound 42, 2-Isothiocyanato-N,N-dimethylethanamine], 164 µM.
With Ethyl isothiocyanate [Compound 11] the figure was 82.2 µM.
In the case of Methyl isothiocyanate [Compound 14], the IC50 was 149 µM.

The values are drawn from patent publication US10786479B2, “Methods for inhibiting conversion of carnitine to trimethylamine (TMA)” (The Procter & Gamble Company, priority 2015, dated 2020).
